Assay results as given in paper PMC5321753, “Enhanced expression of ADCY1 underlies aberrant neuronal signalling and behaviour in a syndromic autism model” (Nature Communications, 2017).

Tests used:
[1] = tested on: S6K1; assay: Immunoblot of phosphorylated and total S6K1 in hippocampus after i.p. injection; type: in vivo, mouse
Experimental: (§1) Hippocampal tissues were collected from 3-month-(+/−10 days) old mice. […] The primers used for Adcy1 were […] (forward) and […] (reverse). The protein levels in hippocampal tissues collected from mice were determined by western blot using anti-ADCY1 (Sigma, Cat # SAB4500146-100UG, 1:1,000 dilution), anti-p-ERK1/2 (Cell Signaling, Cat # 9101L, 1:1,000 dilution), anti-pAkt (Cell Signaling, Cat # 9271, 1:1,000 dilution), anti-pS6K1 (Cell Signaling, Cat # 9204L for the detection of phosphorylation at Thr421/Ser424, Cat # 9234S for the detection of phosphorylation at Thr389, 1:1,000 dilution), anti-ERK1/2 (Cell Signaling, Cat # 9102L, 1:1,000 dilution), anti-Akt (Cell Signaling, Cat # 9272S, 1:1,000 dilution), anti-S6K1 (Cell Signaling, Cat # 9202L, 1:1,000 dilution) and anti-β-actin antibody (Sigma, Cat # A5441; 1:5,000 dilution). Following incubations with infrared fluorescence (IRDye)-conjugated secondary antibodies (1:5,000, LI-COR Biosciences, Cat # 926–32211 and 926–68070), signals were detected using the Odyssey system (LI-COR Biosciences). The un-cropped western blots are shown in Supplementary Fig. 10.
(§2) NB001 was dissolved in water to give a 25 mM stock solution. The stock was diluted in saline and IP injected into mice at 1 mg kg^−1 body weight. In all cases, the drug was administered 1 h before testing. Control mice were treated similarly but injected with saline.

[2] = tested on: Akt; assay: Immunoblot of phosphorylated and total Akt in hippocampus after i.p. injection; type: in vivo, mouse; conditions: acute NB001 1 mg kg^-1 IP, 1 h after injection
Experimental: as §1, §2

[3] = Mouse liver microsome stability assay; type: in vitro ADME; conditions: incubation with liver microsomes, 0-60 min
Experimental: Following IP injection of NB001 (20 mg kg^−1), mice were killed at various time points, and 0.5–0.8 ml of blood was drawn from a cardiac puncture into a 1 ml syringe, which was pre-treated with NaHeparin. The blood was collected into 1.5 ml microfuge tubes coated with NaHeparin and put on ice immediately. Samples were centrifuged at 15,000 r.p.m. for 15 min. Blood plasma was collected from the upper layer, leaving the blood cells in the tube. The plasma was frozen at −80 °C for later analysis. Brains were taken out and weighed immediately. Brains were frozen at −80 °C for later preparation and analysis. The samples were subjected to LC/MS/MS with Turbo-Ionspray Interface used in the positive ion-mode (Pharmacokinetics Core, University of Michigan). Mouse liver microsome stability assay was performed by the Pharmacokinetics Core at University of Michigan.

[4] = tested on: mice; assay: Clinical panel blood test after 14 days of NB001; type: in vivo, mouse
Experimental: Mice at 3 months (+/−10 days) of age were IP injected with NB001 twice daily at 50 mg kg^−1 for 2 weeks. Clinical observations were performed twice daily and body weights were measured on various days during the dosing regimen. At the end of the dosing period, mice were killed and blood was collected for clinical pathology (Diagnostic Center for Population and Animal Health, Michigan State University). The liver and kidney were collected and fixed in 10% buffered formalin (INVIVO facility at Michigan State University).

[5] = tested on: ADCY1; design: method as in PMID 21228397; conditions: intact cells; cited from earlier work
[6] = tested on: neuropathic pain; design: method as in PMID 21228397; conditions: systemic administration; cited from earlier work
[7] = blood, NB001 50 mg per kg twice per day for 14 days
[8] = blood, NB001 50 mg per kg twice per day for 14 days, mean ± SEM

Nc1ncnc2c1ncn2CCNCCCCCO [NB001, 5-{[2-(6-amino-9H-purin-9-yl)ethyl]amino}-1-pentanol]
elevated level of pS6K1 (at Thr421/Ser424) in the hippocampus ([1]; Fmr1 KO mice, NB001 1 mg kg^-1 IP, 1 h after injection, relative to WT levels): normalized | phosphorylation of S6K1 in WT mice ([1]; WT mice, NB001 1 mg kg^-1 IP, hippocampus): did not cause measurable changes | level of pS6K1 at PI3K target site Thr389 ([1]; hippocampus, acute NB001 1 mg kg^-1 IP, 1 h after injection): not affected | level of pAkt [2]: not affected | stability in mouse liver microsome assay [3]: stable and resistant to degradation | concentrations of various electrolytes and levels of the main toxicity-related proteins (such as aminotransferases) ([4]; NB001 50 mg kg^-1 twice a day for 14 days): no effect | ALT ([4]; alanine aminotransferase, blood, NB001 50 mg per kg twice per day for 14 days, mean ± SEM): 18.50 ±0.96 U/L | ALP ([4]; alkaline phosphatase, blood, NB001 50 mg per kg twice per day for 14 days, mean ± SEM): 62.75 ±4.48 U/L | AST ([4]; aspartate aminotransferase, blood, NB001 50 mg per kg twice per day for 14 days, mean ± SEM): 32.50 ±1.55 U/L | Hemolysis Chem [4, 7]: Normal | Icterus Chem [4, 7]: Normal | Lipemia Chem [4, 7]: Normal | Albumin [4, 8]: 2.65 ± 0.13 g/dL | Amylase [4, 8]: 586.50 ±29.02 U/L | Anion Gap [4, 8]: 29.50 ± 2.36 mmol/L | Calcium [4, 8]: 8.83 ± 0.20 mg/dL | Chol [4, 8]: 100.00 ± 5.96 mg/dL | Glucose [4, 8]: 216.50 ± 8.50 mg/dL | Magnesium [4, 8]: 2.60 ± 0.11 mg/dL | Na/K Ratio [4, 8]: 32.00 ±1.47 | Osmolarity [4, 8]: 321.00 ±4.00 mOs/L | Phosphorus [4, 8]: 6.50 ± 0.24 mg/dL | Potassium [4, 8]: 4.73 ± 0.22 mmol/L | Sodium [4, 8]: 150.50 ± 1.50 mmol/L | Total CO2 [4, 8]: 13.50 ± 1.04 mmol/L | Urea Nitrogen [4, 8]: 24.50 ± 0.87 mg/dL | inhibition of ADCY1 activity versus other types of adenylyl cyclases [5]: preferentially inhibits ADCY1 activity over other types of adenylyl cyclases | neuropathic pain [6]: attenuates
